Test results from patent US12581252B2, “Substituted pyrrolo[3,4-b]pyridines as PI3K-α inhibitors” (Relay Therapeutics, Inc., priority 2020, dated 2026).

Each compound was assayed against H1047R PIK3CA enzyme (Homo sapiens, UniProt P42336, H1047R) (assay: ADP-Glo Biochemical PIK3CA Kinase Assay).
Chain of H1047R PIK3CA enzyme (P42336 whole entry H1047R): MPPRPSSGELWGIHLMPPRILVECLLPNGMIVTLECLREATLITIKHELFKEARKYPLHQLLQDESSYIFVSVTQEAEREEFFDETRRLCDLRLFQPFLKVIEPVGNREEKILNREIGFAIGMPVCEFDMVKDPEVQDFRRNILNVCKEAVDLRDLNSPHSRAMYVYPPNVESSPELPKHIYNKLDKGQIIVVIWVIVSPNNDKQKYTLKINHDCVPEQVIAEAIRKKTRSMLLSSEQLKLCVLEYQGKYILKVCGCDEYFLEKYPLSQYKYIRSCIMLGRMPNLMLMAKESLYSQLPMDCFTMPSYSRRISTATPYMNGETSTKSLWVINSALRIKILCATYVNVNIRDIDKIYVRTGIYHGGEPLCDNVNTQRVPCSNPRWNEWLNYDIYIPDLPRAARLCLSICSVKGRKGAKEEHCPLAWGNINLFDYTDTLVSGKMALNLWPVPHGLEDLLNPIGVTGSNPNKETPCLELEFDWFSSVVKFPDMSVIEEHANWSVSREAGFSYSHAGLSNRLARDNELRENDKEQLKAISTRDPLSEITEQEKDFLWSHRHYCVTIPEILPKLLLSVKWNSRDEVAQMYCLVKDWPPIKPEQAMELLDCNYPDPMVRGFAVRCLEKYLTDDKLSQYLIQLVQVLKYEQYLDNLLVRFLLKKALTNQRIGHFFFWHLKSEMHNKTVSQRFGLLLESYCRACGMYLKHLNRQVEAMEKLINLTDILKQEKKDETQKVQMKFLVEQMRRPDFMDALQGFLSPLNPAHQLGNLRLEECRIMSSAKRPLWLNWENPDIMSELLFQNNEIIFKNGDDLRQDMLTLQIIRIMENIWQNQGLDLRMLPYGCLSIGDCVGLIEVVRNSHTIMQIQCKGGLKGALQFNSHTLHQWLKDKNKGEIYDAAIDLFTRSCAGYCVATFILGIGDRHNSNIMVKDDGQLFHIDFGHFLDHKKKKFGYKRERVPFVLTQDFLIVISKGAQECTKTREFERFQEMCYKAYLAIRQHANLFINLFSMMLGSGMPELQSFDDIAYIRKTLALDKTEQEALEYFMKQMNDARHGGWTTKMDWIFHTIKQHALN
Chain of H1047R PIK3CA enzyme (P27986 whole entry partner): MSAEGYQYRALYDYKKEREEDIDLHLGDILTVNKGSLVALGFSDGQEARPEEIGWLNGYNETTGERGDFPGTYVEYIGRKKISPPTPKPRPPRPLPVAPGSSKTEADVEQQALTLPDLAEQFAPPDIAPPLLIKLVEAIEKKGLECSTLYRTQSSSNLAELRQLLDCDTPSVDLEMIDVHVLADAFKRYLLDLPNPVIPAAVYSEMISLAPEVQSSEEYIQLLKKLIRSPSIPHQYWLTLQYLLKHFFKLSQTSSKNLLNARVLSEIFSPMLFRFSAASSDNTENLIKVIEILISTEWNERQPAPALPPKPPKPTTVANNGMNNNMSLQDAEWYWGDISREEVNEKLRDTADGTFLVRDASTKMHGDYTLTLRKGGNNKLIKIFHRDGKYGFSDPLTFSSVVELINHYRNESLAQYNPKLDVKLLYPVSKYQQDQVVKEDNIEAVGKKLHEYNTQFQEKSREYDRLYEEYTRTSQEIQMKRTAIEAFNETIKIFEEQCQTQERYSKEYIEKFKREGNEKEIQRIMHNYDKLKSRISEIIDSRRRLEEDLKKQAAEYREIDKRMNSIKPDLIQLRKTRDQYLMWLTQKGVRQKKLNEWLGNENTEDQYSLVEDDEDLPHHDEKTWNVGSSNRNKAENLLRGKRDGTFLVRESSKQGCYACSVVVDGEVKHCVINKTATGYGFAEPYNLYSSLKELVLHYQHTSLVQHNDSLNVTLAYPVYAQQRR
Experimental: Compounds to be assayed were plated in 16 doses of 1:2 serial dilutions (20 nL volume each well) on a 1536-well plate, and the plate warmed to room temperature. […] To the well was added 1 μL of 200 μM ATP and 20 μM of diC8-PIP2 in Substrate Assay Buffer (50 mM HEPES pH7.4, 50 mM NaCl, 5 mM DTT and 0.03% CHAPS) to start the reaction, and the plate was shaken for 10 seconds, then spun briefly at 1500 rpm, and then incubated for 60 minutes at room temperature. The reaction was stopped by adding 2 μL of ADP-Glo reagent (Promega), and spinning briefly at 1500 rpm, and then incubating for 40 minutes. ADP-Glo Detection reagent (Promega) was added and the plate spun briefly at 1500 rpm, then incubated for 30 minutes.
In the case of `Cc1ccccc1C1NC(=O)c2cccc(NC(=O)c3noc4ccc(F)cc34)c21` (stereo not shown) [Compound I-21], the IC50 is reported as 1 to 10 µM. `O=C1NC(c2cc(F)ccc2Cl)c2c(NC(=O)C3CCCC(O)C3)cc(-c3ccc4ncnn4c3)cc21` (stereo not shown) [Compound I-1723] was tested, and the IC50 was 10 to 100 µM. `Nc1cc(NC(=O)N2C[C@@H](O)c3ccccc32)c2c(c1)C(=O)N[C@@H]2c1cc(F)ccc1Cl` (single isomer, unassigned) [Compound I-2131] gave an IC50 of 1 to 10 µM. `O=C1NC(c2cc(F)ccc2Cl)c2c(NC3CCc4ccccc43)cc(Br)cc21` (stereo not shown) [Compound I-1852] showed an IC50 of 10 to 100 µM. Work on `O=C(Nc1cc(OC2COC2)cc2c1C(c1cc(F)ccc1Cl)NC2=O)c1cc(F)cc(C(F)(F)F)c1` (stereo not shown) [Compound I-1131] yielded an IC50 of at most 0.1 µM. Compound `O=C1NC(c2cc(F)ccc2Cl)c2c1cccc2-c1nc2c(C(F)(F)F)cc(F)cc2[nH]1` (stereo not shown) [Compound I-842] has an IC50 of 0.1 to 0.5 µM. In the case of `O=C1N[C@@H](c2cc(F)ccc2Cl)c2c(NC(=O)c3nsc4ccccc34)cc(-c3ccc4ncnn4c3)cc21` (stereo in doubt) [Compound I-1829], the IC50 is reported as at most 0.1 µM. `Cn1cc(-c2cc(NC(=O)c3cc(F)cc(C(F)(F)F)c3)c3c(c2)C(=O)N[C@@H]3c2cc(F)ccc2Cl)c(C#N)n1` [Compound I-1737] gave an IC50 of 10 to 100 µM. For `O=C(Nc1cc(Br)cc2c1[C@H](c1cc(F)ccc1Cl)NC2=O)N[C@]1(CC(F)(F)F)CCCOC1` (racemic) [Compound I-1949], the IC50 was 10 to 100 µM. `O=C1N[C@H](c2cc(F)ccc2Cl)c2c(NC(=O)N3C[C@H](O)c4cc(F)c(F)cc43)cccc21` (single isomer, unassigned) [Compound I-2294] showed an IC50 of 10 to 100 µM. Work on `O=C1NC(c2cc(F)ccc2Cl)c2c(Nc3cc(CO)c(C(F)(F)F)cn3)cccc21` (stereo not shown) [Compound I-1377] yielded an IC50 of 10 to 100 µM. `O=C(Nc1cc(Cl)nc2c1[C@@H](c1cc(F)ccc1Cl)NC2=O)c1cc(F)cc(C(F)(F)F)c1` [Compound I-617] gave an IC50 of at most 0.1 µM. `O=C(Nc1cc(N2CCC2)nc2c1C(c1cc(F)ccc1Cl)NC2=O)c1cc(F)cc(C(F)(F)F)c1` (stereo not shown) [Compound I-441] showed an IC50 of at most 0.1 µM. Compound `O=C1N[C@H](c2cc(F)ccc2Cl)c2c(NC(=O)[C@H]3CCCNC3)cc(-c3ccc4ncnn4c3)cc21` (racemic) [Compound I-1848] has an IC50 of 10 to 100 µM. `N#CC1CN(c2cc(NC(=O)c3cc(F)cc(C(F)(F)F)c3)c3c(n2)C(=O)NC3c2cc(F)ccc2Cl)C1` (stereo not shown) [Compound I-443] gave an IC50 of at most 0.1 µM. `O=C1N[C@@H](c2cc(F)ccc2Cl)c2c(NC(=O)N3C[C@@](O)(C(F)(F)F)c4cc(F)ccc43)ccnc21` (single isomer, unassigned) [Compound I-2700] showed an IC50 of 1 to 10 µM. `O=C1NC(c2cc(F)ccc2Cl)c2c(Nc3nccc4ccsc34)cc(Br)cc21` (stereo not shown) [Compound I-1461] showed an IC50 of 10 to 100 µM. Compound `O=C(Nc1cc(Nc2cn[nH]c2)cc2c1[C@@H](c1cc(F)ccc1Cl)NC2=O)c1cc(F)cc(C(F)(F)F)c1` [Compound I-1259] has an IC50 of 1 to 10 µM. Work on `O=C1NC(c2cc(F)ccc2Cl)c2c(NC(=O)N3CC4CCC4(C(F)(F)F)C3)cc(Br)cc21` (stereo not shown) [Compound I-1754] yielded an IC50 of 1 to 10 µM. Work on `Cn1ccc(-c2cc(NC(=O)c3cc(F)cc(C(F)(F)F)c3)c3c(c2)C(=O)N[C@H]3c2cc(F)ccc2Cl)cc1=O` (stereo in doubt) [Compound I-1001] yielded an IC50 of 1 to 10 µM. `O=C(Nc1cccc2c1C(c1cccc3c1NCC3)NC2=O)c1cc(F)cc(C(F)(F)F)c1` (stereo not shown) [Compound I-660] was tested, and the IC50 was 10 to 100 µM. `Cn1ccc(Nc2cc(NC(=O)c3cc(F)cc(C(F)(F)F)c3)c3c(c2)C(=O)NC3c2cc(F)ccc2Cl)n1` (stereo not shown) [Compound I-867] showed an IC50 of at most 0.1 µM. `O=C1NC(c2cc(F)ccc2Cl)c2c(NC(=O)N3CCC4C3[C@H]4C(F)(F)F)cccc21` (single isomer, unassigned) [Compound I-2328] gave an IC50 of 10 to 100 µM. `O=C1NC(c2cc(F)ccc2Cl)c2c(NC(=O)N3CCc4cc(C(F)(F)F)ccc43)cccc21` (stereo not shown) [Compound I-2436] was tested, and the IC50 was 10 to 100 µM. Compound `O=C1N[C@H](c2cc(F)ccc2Cl)c2c(NC(=O)[C@@H]3CC[C@H](C(F)(F)F)C3)cccc21` [Compound I-2084] has an IC50 of 10 to 100 µM. Compound `O=C1NC(c2cc(F)ccc2Cl)c2c1cc(-c1ccc3ncnn3c1)cc2S(=O)(=O)Cc1ccccc1` (stereo not shown) [Compound I-1742] has an IC50 of 1 to 10 µM. `Cn1nccc1Nc1cc(NC(=O)c2cc(F)cc(C(F)(F)F)c2)c2c(c1)C(=O)N[C@@H]2c1cc(F)ccc1Cl` [Compound I-1145] was tested, and the IC50 was 1 to 10 µM. `O=C(Nc1cc(C2(O)COC2)cc2c1C(c1cc(F)ccc1Cl)NC2=O)c1cc(F)cc(C(F)(F)F)c1` (stereo not shown) [Compound I-1281] gave an IC50 of at most 0.1 µM. Work on `O=C(Nc1cc(-c2ccc3nccn3c2)cc2c1[C@@H](c1cc(F)ccc1Cl)NC2=O)c1cc(F)cc(C(F)(F)F)c1` [Compound I-826] yielded an IC50 of 0.5 to 1 µM. `CC[C@]1(O)CN(C(=O)Nc2cccc3c2[C@@H](c2cc(F)ccc2Cl)NC3=O)c2ccc(F)cc21` (single isomer, unassigned) [Compound I-2460] gave an IC50 of 1 to 10 µM. `CN1CCC(C(=O)Nc2cc(-c3ccc4ncnn4c3)cc3c2C(c2cc(F)ccc2Cl)NC3=O)CC1` (stereo not shown) [Compound I-1758] was tested, and the IC50 was 10 to 100 µM. Compound `O=C1NC(c2cc(F)ccc2Cl)c2c(NC(=O)[C@@H](O)c3cc(F)cc(F)c3)cc(Br)cc21` (single isomer, unassigned) [Compound I-803] has an IC50 of 10 to 100 µM. Compound `CC(C)(O)c1cnc2ccc(-c3cc(NC(=O)c4cc(F)cc(C(F)(F)F)c4)c4c(c3)C(=O)N[C@@H]4c3cc(F)ccc3Cl)cc2c1` [Compound I-1605] has an IC50 of 10 to 100 µM. `O=C1N[C@H](c2cc(F)ccc2Cl)c2c(NC(=O)N3C[C@@](O)(C(F)(F)F)c4cc(F)ccc43)ccc(-n3ccnn3)c21` (single isomer, unassigned) [Compound I-2524] showed an IC50 of 1 to 10 µM. `O=C(Nc1cc(OC2CCOCC2)cc2c1C(c1cc(F)ccc1Cl)NC2=O)c1cc(F)cc(C(F)(F)F)c1` (stereo not shown) [Compound I-1135] was tested, and the IC50 was at most 0.1 µM. `O=C1NC(c2cc(F)ccc2Cl)c2c1cc(-c1ccc3ncnn3c1)cc2N1CCn2ncnc2C1` (stereo not shown) [Compound I-2018] gave an IC50 of 10 to 100 µM. With `O=C1N[C@@H](c2cc(F)ccc2Cl)c2c(NC(=O)N3C[C@@](O)(C(F)F)c4cc(F)ccc43)cc(F)cc21` (single isomer, unassigned) [Compound I-2633] the IC50 was 1 to 10 µM. `O=C1N[C@H](c2cc(F)ccc2Cl)c2c(NC(=O)N3C[C@@H](CO)[C@H](C(F)(F)F)C3)cccc21` (single isomer, unassigned) [Compound I-2276] was tested, and the IC50 was 10 to 100 µM. Compound `O=C(Nc1cc(C2CCCOC2)cc2c1C(c1cc(F)ccc1Cl)NC2=O)c1cc(F)cc(C(F)(F)F)c1` (stereo not shown) [Compound I-1142] has an IC50 of at most 0.1 µM. `CC1CN(C(=O)Nc2cc(Br)cc3c2C(c2cc(F)ccc2Cl)NC3=O)CCN1C` (racemic) [Compound I-686] gave an IC50 of 10 to 100 µM. `O=C1NC(c2cc(F)ccc2Cl)c2c(NC(=O)N3CCNC(C(F)(F)F)C3)cccc21` (stereo not shown) [Compound I-2222] was tested, and the IC50 was 10 to 100 µM. For `N#Cc1cn(-c2cc(NC(=O)c3cc(F)cc(C(F)(F)F)c3)c3c(c2)C(=O)NC3c2cc(F)ccc2Cl)cn1` (stereo not shown) [Compound I-1127], the IC50 was at most 0.1 µM. `N#C[C@H]1C[C@@H](Oc2cc(NC(=O)c3cc(F)cc(C(F)(F)F)c3)c3c(c2)C(=O)NC3c2cc(F)ccc2Cl)C1` (mixture of isomers) [Compound I-1295] was tested, and the IC50 was at most 0.1 µM. For `CCC[C@@]1(O)CN(C(=O)Nc2cccc3c2[C@H](c2cc(F)ccc2Cl)NC3=O)c2ccc(F)cc21` (single isomer, unassigned) [Compound I-2459], the IC50 was 1 to 10 µM. For `N#CC[C@H](O)c1cc(NC(=O)c2cc(F)cc(C(F)(F)F)c2)c2c(c1)C(=O)N[C@H]2c1cc(F)ccc1Cl` (single isomer, unassigned) [Compound I-1394], the IC50 was at most 0.1 µM. With `N#Cc1cc(Oc2cc(NC(=O)c3cc(F)cc(C(F)(F)F)c3)c3c(c2)C(=O)NC3c2cc(F)ccc2Cl)ccn1` (stereo not shown) [Compound I-1130] the IC50 was at most 0.1 µM. For `CC(C#N)c1cc(NC(=O)c2cc(F)cc(C(F)(F)F)c2)c2c(c1)C(=O)N[C@@H]2c1cc(F)ccc1Cl` (stereo partly shown) [Compound I-2289], the IC50 was 1 to 10 µM. `C[C@]1(O)C[C@@H](Nc2cc(NC(=O)c3cc(F)cc(C(F)(F)F)c3)c3c(n2)C(=O)NC3c2cc(F)ccc2Cl)C1` (single isomer, unassigned) [Compound I-329] was tested, and the IC50 was 0.1 to 0.5 µM. In the case of `Cn1nccc1C(F)c1cc(NC(=O)c2cc(F)cc(C(F)(F)F)c2)c2c(c1)C(=O)NC2c1cc(F)ccc1Cl` (mixture of isomers) [Compound I-1379], the IC50 is reported as at most 0.1 µM. `O=C1N[C@@H](c2cc(F)ccc2Cl)c2c(NC(=O)C3(c4cc(F)cc(C(F)(F)F)c4)CCCC3)cc(Br)cc21` [Compound I-2071] gave an IC50 of 10 to 100 µM. With `O=C(Nc1cccc2c1C(c1cc(F)ccc1Cl)NC2=O)c1ccc(O)c(C(F)(F)F)c1` (stereo not shown) [Compound I-2363] the IC50 was 10 to 100 µM. `O=C1NCc2c(NC(=O)N3CCCC[C@H]3Cc3ccccc3)cccc21` (stereo in doubt) [Compound I-988] showed an IC50 of 10 to 100 µM. `CN1C[C@H](Nc2cc(NC(=O)c3cc(F)cc(C(F)(F)F)c3)c3c(c2)C(=O)NC3c2cc(F)ccc2Cl)CC1=O` (single isomer, unassigned) [Compound I-343] was tested, and the IC50 was at most 0.1 µM. `O=C1NC(c2cc(F)ccc2Cl)c2c(CS(=O)(=O)c3ccccc3)cc(-c3ccc4ncnn4c3)cc21` (stereo not shown) [Compound I-1728] showed an IC50 of 10 to 100 µM. `COc1cc2c(cn1)N(C(=O)Nc1ccnc3c1C(c1ccccc1C)NC3=O)CC2` (stereo not shown) [Compound I-324] gave an IC50 of 10 to 100 µM. `CC(C)(C)C1CCCN1C(=O)Nc1cccc2c1C(c1cc(F)ccc1Cl)NC2=O` (single isomer, unassigned) [Compound I-2432] showed an IC50 of 0.5 to 1 µM. Work on `Cc1ccc2c(c1)N(C(=O)Nc1cccc3c1C(c1cc(F)ccc1Cl)NC3=O)CC2` (stereo not shown) [Compound I-2470] yielded an IC50 of 0.1 to 0.5 µM. Compound `O=C1N[C@H](c2cc(F)ccc2Cl)c2c(NC(=O)N3CCOCC(F)(F)C3)cc(Br)cc21` (single isomer, unassigned) [Compound I-2243] has an IC50 of 10 to 100 µM.
